# Measurements as given in US6015820A, “4-Aryl-thio-pyridin-2(1H)-ones, medicines containing them and their uses in the treatment of illnesses linked to HIV” (priority 1995, dated 2000).
# Columns and labels:
# HIV-1 IIIB = assay: anti-HIV-1 activity, HIV-1 IIIB/PBMC; assay type: cell-based; details: Human immunodeficiency virus 1, Table 4
# Protocol: The virus production was measured by quantifying the activity of the inverse transcriptase associated with viral particles released into the culture supernatant. In short, cells were infected with 100 TCID50 for 30 minutes; after adsorption of the virus, unbound particles were removed by two washings and the cells were cultivated in the presence of different concentrations of the compounds tested for 5 days before determining the viral production. The concentration inhibiting 50% of the viral multiplication (IC50) came from the computer plot of the median effect of the dose effect results (Chou et al. Elsevier Science Publishers, Cambridge U.K. (1985), 19-28).
# Thirty two compounds according to the invention were studied for their anti-HIV-1 biological activity. […] This compound was then tested with other colonies and other cell lines (Table 4).
# [1] = cytotoxicity on MT4 cells; assay type: cell-based; details: human, Table 4, line HIV-1 IIIB/MT4
# Protocol: (§1) In parallel experiments, the cytotoxicity of the molecules was measured on non-infected cells, after an incubation of 5 days in the presence of these molecules, by using a […] titration (MTT test) based on the ability of the mitochondrial dehydrogenases of the living cells to reduce 3-(4,5-dimethylthiazol-2-yl)-2,5-diphenyltetrazolium bromide in formazan (Mosmann et al. J. Immunol. Methods ([…]), 65, 55-63). The concentration cytotoxic at 50% (CC50) is the concentration at which the DO540 has been reduced to half and is calculated by using the program mentioned above.
# IT of recombinant HIV-1 = target: T1, IT of recombinant HIV-1 (Human immunodeficiency virus type 1 group M subtype B, UniProt P03369); assay: inhibition of the inverse transcriptase of recombinant HIV-1; assay type: biochemical
# T1 construct: purify the IT enzyme of the recombinant HIV-1; made in house; host or cells: yeast cells transformed with the pAB 24/IT-4 vector
# Protocol: Yeast cells transformed with the pAB 24/IT-4 vector were used to purify the IT enzyme of the recombinant HIV-1 as described by Sallafranque-Andreola et al. (1989 Eur. J. Biochem. 184, 364-374).
# (§2) Incubation was carried out at 37° C. for 10 minutes in the presence of various matrix-primers.
# (§3) a) Poly C-oligo dG: the reaction mixture contained a final volume of 0.05 ml, Tris-HCl 50 mM pH 8.0, MgCl2 5 mM, dithiothreitol 4 mM, 0.48 A260 /ml of poly C-oligo dG (5:1), 1.0 μCi of [^3 H]dGTP (28 Ci/mmole), dGTP 2 μM, KCl 80 mM, 1 μg of bovine serum albumin and IT 20-50 nM.
# (§4) b) Poly A-oligo dT: the same conditions as in a), except that 0.48 A260 /ml of poly A-oligo dT (5:1), 0.5 μCi of [^3 H]dTTP (46 Ci/mmole), dTTP 20 μM were used.
# (§5) The reactions were stopped by adding in the cold 1 ml of 10% trichloroacetic acid plus sodium pyrophosphate 0.1 M. The precipitates were filtered through nitrocellulose membranes, washed with 2% trichloroacetic acid, dried and counted in a PPO/POPOP/toluene scintillation mixture.
# (§6) All the compounds were dissolved in dimethyl#sulphoxide (DMSO). The test samples were prepared in the presence of the same final concentration of DMSO. IC50 is the concentration required to inhibit the activity of the IT of the recombinant HIV-1 by 50%.
# IT of HIV-2 = IT of HIV-2 (Human immunodeficiency virus type 2 (ISOLATE ROD), UniProt P04584); assay: inhibition of the inverse transcriptase of HIV-2; assay type: biochemical; details: at concentrations at which the IT of HIV-1 was well inhibited (FIG. 9)
# Protocol: The system for the expression of the IT of HIV-2 in E.coli (B. Muller et al. (1991 J. Biol. Chem. 266, 14708-14713) was provided by Dr. R. Goody. The IT of the HIV-2 was purified in the same way as the IT of the HIV-1.
# as §2, §3, §4, §5, §6
# PBMC = assay: cytotoxicity on PBMC; assay type: cell-based; details: Table 4, 7200 min
# Protocol: as §1
# cytotoxicity on PBMC = assay type: cell-based; details: human; Table 4; line HIV-1 IIIB/PBMC
# Protocol: as §1
# IT of HIV-2, sequence (P04584 613-1171): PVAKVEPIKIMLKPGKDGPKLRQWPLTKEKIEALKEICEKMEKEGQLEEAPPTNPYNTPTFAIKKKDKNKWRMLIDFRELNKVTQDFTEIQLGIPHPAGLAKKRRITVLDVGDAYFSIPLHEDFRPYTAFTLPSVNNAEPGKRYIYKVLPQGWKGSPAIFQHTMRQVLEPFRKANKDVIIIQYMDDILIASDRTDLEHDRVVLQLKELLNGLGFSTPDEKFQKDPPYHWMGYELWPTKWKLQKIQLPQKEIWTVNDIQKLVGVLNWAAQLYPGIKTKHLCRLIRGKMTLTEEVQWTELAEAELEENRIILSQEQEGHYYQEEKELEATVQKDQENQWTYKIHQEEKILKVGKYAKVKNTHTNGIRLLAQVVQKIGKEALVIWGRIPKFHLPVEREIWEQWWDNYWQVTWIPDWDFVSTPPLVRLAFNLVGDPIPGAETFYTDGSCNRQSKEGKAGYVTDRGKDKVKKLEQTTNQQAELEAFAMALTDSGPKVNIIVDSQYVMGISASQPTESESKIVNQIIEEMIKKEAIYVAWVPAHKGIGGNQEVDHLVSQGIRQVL
smiles,measurement,setting,value
"CCc1c(C)[nH]c(=O)c([N+](=O)[O-])c1Sc1cc(C)cc(C)c1 [Compound 7c, 5-ethyl-6-methyl-3-nitro-4-(3', 5'-dimethylphenyl)thio-pyridin-2(1H)-one]",IC50,HIV-1 IIIB,< 0.03 nM
same,CC50 at 120 h,[1],> 10 µM
same,IC50,IT of recombinant HIV-1,0.03 µM
same,effect on activity of the IT of HIV-1 in HIV-1/HIV-2 comparison,IT of recombinant HIV-1; FIG. 9,well inhibited
same,IT inhibition according to matrix-primer couple,IT of recombinant HIV-1; poly C-oligo dG compared with poly A-oligo dT (FIG. 9),Better inhibition was obtained in the presence of poly C-oligo dG compared with poly A-oligo dT
same,effect on activity of the IT of HIV-2,IT of HIV-2,not affected
same,CC50,PBMC; line HIV-1 6 type D/PBMC,> 10 µM
same,CC50,PBMC; line HIV-1 4200 type E/PBMC,> 10 µM
same,CC50,PBMC; line HIV-2 D194/PBMC,> 10 µM
same,CC50 at 120 h,cytotoxicity on PBMC,> 10 µM
